Results taken from ChEMBL document CHEMBL1129962, “Nonsteroidal anti-inflammatory drugs as scaffolds for the design of 5-lipoxygenase inhibitors” (J Med Chem, 1997).

Assays:
[1] = target: Prostaglandin G/H synthase 1 (Homo sapiens) (UniProt P23219); experiment: Inhibition activity against recombinant human Prostaglandin G/H synthase 1; set-up: concentration or dose not given beside the values; settings: concentration not given here
[2] = target: T1, Prostaglandin G/H synthase 2 (Homo sapiens) (UniProt P35354); experiment: Inhibition activity against recombinant human Prostaglandin G/H synthase 2; set-up: concentration or dose not given beside the values; settings: concentration not given here
T1 sequence (whole entry): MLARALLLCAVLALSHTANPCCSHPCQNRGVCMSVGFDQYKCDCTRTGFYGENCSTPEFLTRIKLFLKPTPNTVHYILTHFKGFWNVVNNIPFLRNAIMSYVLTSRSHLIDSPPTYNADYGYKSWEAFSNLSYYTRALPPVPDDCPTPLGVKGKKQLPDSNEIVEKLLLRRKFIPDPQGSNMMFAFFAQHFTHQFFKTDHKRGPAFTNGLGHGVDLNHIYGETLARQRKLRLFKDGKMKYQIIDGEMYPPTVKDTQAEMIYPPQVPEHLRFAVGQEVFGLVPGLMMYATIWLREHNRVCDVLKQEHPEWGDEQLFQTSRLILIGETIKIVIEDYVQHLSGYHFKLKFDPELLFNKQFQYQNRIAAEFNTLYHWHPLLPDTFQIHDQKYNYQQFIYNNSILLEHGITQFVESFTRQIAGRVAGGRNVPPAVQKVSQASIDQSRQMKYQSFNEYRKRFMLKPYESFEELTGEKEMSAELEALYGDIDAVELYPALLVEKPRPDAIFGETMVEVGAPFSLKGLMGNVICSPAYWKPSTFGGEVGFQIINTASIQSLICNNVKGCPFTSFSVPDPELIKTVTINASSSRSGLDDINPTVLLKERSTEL

[3] = target: T2, Polyunsaturated fatty acid 5-lipoxygenase (Homo sapiens, UniProt P09917); experiment: Inhibitory activity against 5-lipoxygenase in Human whole blood (HWBL) stimulated with calcium ionophore (A23187) and LTB4 measured by enzyme immunoassay; type: functional, tissue-based
T2 sequence (P09917 whole entry): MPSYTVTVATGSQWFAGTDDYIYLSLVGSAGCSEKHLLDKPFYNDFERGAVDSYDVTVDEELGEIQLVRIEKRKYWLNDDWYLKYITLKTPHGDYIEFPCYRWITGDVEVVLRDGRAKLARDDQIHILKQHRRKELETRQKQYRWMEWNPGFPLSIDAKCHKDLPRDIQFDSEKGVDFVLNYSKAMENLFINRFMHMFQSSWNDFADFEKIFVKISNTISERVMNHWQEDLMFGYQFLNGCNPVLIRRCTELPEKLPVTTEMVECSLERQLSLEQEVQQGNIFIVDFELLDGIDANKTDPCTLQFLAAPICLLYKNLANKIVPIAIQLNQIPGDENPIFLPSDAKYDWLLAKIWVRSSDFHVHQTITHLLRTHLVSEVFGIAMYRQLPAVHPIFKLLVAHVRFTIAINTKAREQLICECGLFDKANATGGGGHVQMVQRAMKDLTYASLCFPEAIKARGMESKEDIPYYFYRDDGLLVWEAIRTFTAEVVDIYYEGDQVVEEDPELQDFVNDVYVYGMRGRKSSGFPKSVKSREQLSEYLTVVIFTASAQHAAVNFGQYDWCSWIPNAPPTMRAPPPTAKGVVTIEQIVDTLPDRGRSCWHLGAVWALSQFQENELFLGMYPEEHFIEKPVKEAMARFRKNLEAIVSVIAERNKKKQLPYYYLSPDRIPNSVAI

[4] = target: T3, Polyunsaturated fatty acid 5-lipoxygenase (Rattus norvegicus, UniProt P12527); experiment: Inhibitory activity against 5-lipoxygenase catalysis (5-LO) in sonicated rat basophilic leukemia cell lysate; type: functional
T3 sequence (P12527 whole entry): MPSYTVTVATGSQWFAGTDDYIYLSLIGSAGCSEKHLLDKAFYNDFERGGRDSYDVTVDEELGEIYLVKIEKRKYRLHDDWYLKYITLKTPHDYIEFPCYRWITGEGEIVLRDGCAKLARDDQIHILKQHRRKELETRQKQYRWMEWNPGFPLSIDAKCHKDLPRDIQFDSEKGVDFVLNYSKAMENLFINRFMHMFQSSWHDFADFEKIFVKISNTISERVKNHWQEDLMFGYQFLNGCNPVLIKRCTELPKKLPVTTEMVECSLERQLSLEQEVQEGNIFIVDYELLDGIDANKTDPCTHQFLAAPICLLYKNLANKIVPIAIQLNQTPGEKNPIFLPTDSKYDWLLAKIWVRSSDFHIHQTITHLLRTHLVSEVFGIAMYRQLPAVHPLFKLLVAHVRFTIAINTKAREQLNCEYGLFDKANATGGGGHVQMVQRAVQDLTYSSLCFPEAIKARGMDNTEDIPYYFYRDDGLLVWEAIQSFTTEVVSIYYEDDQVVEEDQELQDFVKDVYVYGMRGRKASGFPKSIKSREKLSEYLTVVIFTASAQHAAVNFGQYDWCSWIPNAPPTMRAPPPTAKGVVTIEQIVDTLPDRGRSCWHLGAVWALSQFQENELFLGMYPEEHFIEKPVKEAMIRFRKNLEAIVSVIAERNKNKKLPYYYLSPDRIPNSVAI

Sequence of Prostaglandin G/H synthase 1 (Homo sapiens) (P23219 whole entry): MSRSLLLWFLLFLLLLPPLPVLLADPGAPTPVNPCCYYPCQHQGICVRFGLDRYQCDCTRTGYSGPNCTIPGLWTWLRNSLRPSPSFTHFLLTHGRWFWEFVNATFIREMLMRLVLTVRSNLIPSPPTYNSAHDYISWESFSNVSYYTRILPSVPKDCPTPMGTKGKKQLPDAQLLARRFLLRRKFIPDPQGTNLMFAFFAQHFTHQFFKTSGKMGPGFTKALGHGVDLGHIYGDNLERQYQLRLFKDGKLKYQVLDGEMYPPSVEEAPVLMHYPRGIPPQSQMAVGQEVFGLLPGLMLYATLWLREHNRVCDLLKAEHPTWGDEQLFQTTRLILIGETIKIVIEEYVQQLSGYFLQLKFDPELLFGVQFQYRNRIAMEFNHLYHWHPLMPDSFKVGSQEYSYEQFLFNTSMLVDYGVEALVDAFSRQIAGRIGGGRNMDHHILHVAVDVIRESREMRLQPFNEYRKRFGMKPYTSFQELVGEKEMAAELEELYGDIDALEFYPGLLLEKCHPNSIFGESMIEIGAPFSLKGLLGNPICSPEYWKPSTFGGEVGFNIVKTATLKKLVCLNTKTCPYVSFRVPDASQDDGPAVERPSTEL

## CC(C)Cc1ccc(C(C)NC(=O)NO)cc1 (stereo not drawn)
[1]
  inhibition: 51%
[2]
  inhibition: 0%
[3]
  IC50: 23 µM

## COc1ccc2cc([C@H](C)NC(=O)NO)ccc2c1
[1]
  inhibition: 0%
[2]
  inhibition: 2%
[3]
  IC50: 7.1 µM

## CC(C)Cc1ccc(C(C)N(O)C(N)=O)cc1 (stereo not drawn)
[1]
  inhibition: 37%
[2]
  inhibition: 0%
[3]
  IC50: 2.5 µM
[4]
  IC50: 0.6 µM

## COc1ccc2cc([C@H](C)N(O)C(N)=O)ccc2c1
[1]
  inhibition: 0%
[2]
  inhibition: 0%
[3]
  IC50: 1.6 µM
[4]
  IC50: 0.4 µM

## COc1ccc2c(c1)c(CNC(=O)N(C)O)c(C)n2C(=O)c1ccc(Cl)cc1
[1]
  inhibition: 64%
[2]
  inhibition: 88%
[3]
  IC50: 1 µM
[4]
  IC50: 0.2 µM

## COc1ccc2c(c1)c(CCN(O)C(N)=O)c(C)n2C(=O)c1ccc(Cl)cc1
[1]
  inhibition: 9%
[2]
  inhibition: 48%
[3]
  IC50: 6.1 µM

## CC(c1cc2ccccc2s1)N(O)C(N)=O (stereo not drawn)
[1]
  inhibition: 0%
[2]
  inhibition: 0%
